Measurements: patent US6818666B2, “Bi-aromatic compounds linked via a heteroethylene radical, and pharmaceutical and cosmetic compositions using them” (Galderma Research & Development, priority 1919, dated 2004)

Test system: mouse embryonic teratocarcinoma F9 cells
Test: differentiation test on mouse embryonic teratocarcinoma cells (F9), secretion of plasminogen activator
Format: cell-based
Details: for AC50: concentration of the test product which produces half of the maximum amount of plasminogen activator secreted; for RAR-agonist character concluded from F9 differentiation results: conclusion drawn from the F9 AC50 results
Description: Results of differentiation tests on mouse embryonic teratocarcinoma cells (F9) to identify the RAR-agonist molecules as described in Skin Pharmacol. 3, pp. 256-267, 1990.
After treatment with the compounds of the examples cited in the following table, the mouse embryonic teratocarcinoma F9 cells differentiate into endodermal cells. This differentiation is characterized by the secretion of the plasminogen activator into the culture medium.
The activity of the product is expressed by the AC50 value representing the concentration of the test product which produces half of the maximum amount of plasminogen activator secreted.

SMILES | AC50 (Mus musculus, F9) [nM] | RAR-agonist character concluded from F9 differentiation results | AC50 [nM]
Cc1cc2c(cc1[Se]C#Cc1ccc(C(=O)O)c(O)c1)C(C)(C)CCC2(C)C [Compound 16, 2-Hydroxy-4-(3,5,5,8,8-pentamethyl-5,6,7,8-tetrahydro-2-naphthylselanylethynyl)benzoic acid] | 33 | RAR-agonist | 
COC(=O)c1ccc(C#C[Se]c2ccc3c(c2)C(C)(C)CCC3(C)C)cc1 [Compound 4, Methyl 4-(5,5,8,8-tetramethyl-5,6,7,8-tetrahydro-2-naphthylselanylethynyl)benzoate] | 4 | RAR-agonist | 
Cc1cc2c(cc1[Se]C#Cc1ccc(C(=O)O)cn1)C(C)(C)CCC2(C)C [Compound 18, 6-(3,5,5,8,8-Pentamethyl-5,6,7,8-tetrahydro-2-naphthylselanylethynyl)nicotinic acid] | 34 | RAR-agonist | 
CC1(C)CCC(C)(C)c2cc([Se]C#Cc3ccc(C(=O)O)cc3)ccc21 [Compound 5, 4-(5,5,8,8-Tetramethyl-5,6,7,8-tetrahydro-2-naphthylselanylethynyl)benzoic acid] | 21 | RAR-agonist | 
CC1(C)CCC(C)(C)c2cc(SC#Cc3ccc(C(=O)O)cc3)ccc21 [Compound 2, 4-(5,5,8,8-Tetramethyl-5,6,7,8-tetrahydro-2-naphthylsuphanylethynyl)benzoic acid] |  | RAR-agonist | 1
COC(=O)c1ccc(C#CSc2ccc3c(c2)C(C)(C)CCC3(C)C)cc1 [Compound 1, Methyl 4-(5,5,8,8,-tetramethyl-5,6,7,8-tetrahydro-2-nachthylsuphanylethynyl)-benzoate] |  | RAR-agonist | 20
